In US10766902B2, “Wee-1 inhibiting pyrazolopyrimidinone compounds” (ALMAC DISCOVERY LIMITED, priority 2016, dated 2020):

The molecules below were run against Wee-1 kinase (Homo sapiens (Human), UniProt P30291) (assay: Measurement of Wee-1 kinase activity (ADP-Glo luminescence)). Settings: read-out: Wee1 IC50.
Assay type: biochemical
Procedure: Method 1: Measurement of Wee-1 Kinase Activity
In the measurement of Wee-1 activity, a commercial peptide Poly(Lys Tyr(4:1)) hydrobromide was purchased from Sigma Aldrich and used as the substrate. Activated Wee-1 kinase was purchased from Invitrogen (PV3817) and an ADP-Glo luminescent kit was purchased from Promega.
All reactions took place in […] volumes in reaction buffer containing 40 mM Tris-HCl and 20 mM magnesium chloride, supplemented with 0.1 mg/mL bovine serum albumin and 2 mM DTT. Compounds were serially diluted in buffer and 5 μL of each concentration pipetted into a white 384 well plate (Sigma Aldrich M6186). A 5 μL aliquot of the Wee-1 enzyme was added to each well and the plate centrifuged for 1 min to ensure mixing of the enzyme and inhibitor.
The plate was incubated at room temperature for 30 minutes before the addition of 2.0 μg/mL of substrate and 30 μM ATP in a 5 μL aliquot. The plate was centrifuged for one minute and incubated for 1 h at RT.
15 μL of ADP-Glo stop reagent was added to each well to quench the reaction and deplete unconverted ATP. The plate was incubated for a further 40 min in the dark at RT.
30 μL of ADP-Glo kinase detection reagent was added to each well, converting ADP to ATP, catalysing the generation of luciferin by luciferase. The plate was shaken for 1 min, and incubated in the dark for an additional hour.
Luminescence from each well was detected using the Biotek Synergy4 HD plate reader and the percentage inhibition of kinase activity calculated for each inhibitor tested. Positive (kinase only) and negative (no kinase) controls were added to each plate to ensure specific interaction of kinase and inhibitor. The IC50 concentration for each inhibitor was calculated by plotting the percentage kinase inhibition against concentration of inhibitor and the curve generated by non-linear regression fitting.

Sequence of Wee-1 kinase (P30291 whole entry): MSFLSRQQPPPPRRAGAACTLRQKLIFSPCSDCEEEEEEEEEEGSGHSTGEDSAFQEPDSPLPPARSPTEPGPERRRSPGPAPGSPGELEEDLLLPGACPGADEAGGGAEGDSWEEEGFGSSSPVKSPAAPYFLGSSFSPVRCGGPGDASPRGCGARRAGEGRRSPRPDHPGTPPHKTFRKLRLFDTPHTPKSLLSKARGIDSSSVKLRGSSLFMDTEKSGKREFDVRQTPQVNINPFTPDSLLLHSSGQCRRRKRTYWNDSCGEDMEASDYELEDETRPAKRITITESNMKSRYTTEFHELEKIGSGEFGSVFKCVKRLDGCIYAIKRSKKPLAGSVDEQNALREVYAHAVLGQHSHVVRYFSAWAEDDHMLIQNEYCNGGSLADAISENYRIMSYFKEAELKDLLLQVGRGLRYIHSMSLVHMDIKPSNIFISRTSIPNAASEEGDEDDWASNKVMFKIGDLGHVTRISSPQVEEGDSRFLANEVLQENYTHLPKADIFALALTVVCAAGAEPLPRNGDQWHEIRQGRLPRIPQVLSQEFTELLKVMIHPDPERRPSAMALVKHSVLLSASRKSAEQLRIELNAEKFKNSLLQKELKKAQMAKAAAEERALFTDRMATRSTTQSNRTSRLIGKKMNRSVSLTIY

Row | IC50 | SMILES
1 | 0.4 nM | C=CCn1c(=O)c2cnc(Nc3cnn(C4CCCCC4)c3)nc2n1-c1cccc(N=S(C)(C)=O)n1 [Example 96, 2-Allyl-6-((1-cyclohexyl-1H-pyrazol-4-yl)amino)-1-(6-((dimethyl(oxo)-λ^6-sulfaneylidene)amino)pyridin-2-yl)-1,2-dihydro-3H-pyrazolo[3,4-d]pyrimidin-3-one]
2 | 0.5 nM | C=CCn1c(=O)c2cnc(Nc3ccc(N4CCN(C)CC4)c(CO)c3)nc2n1-c1cccc(N=S(C)(C)=O)c1 [Example 30, 1-(3-{[Dimethyl(oxo)-λ^6-sulfanylidene]amino}phenyl)-6-{[3-(hydroxymethyl)-4-(4-methylpiperazin-1-yl)phenyl]amino}-2-(prop-2-en-1-yl)-1H,2H,3H-pyrazolo[3,4-d]pyrimidin-3-one]
3 | 0.3 nM | C=CCn1c(=O)c2cnc(Nc3cnn(C(C)C)c3)nc2n1-c1cccc(N=S(C)(C)=O)n1 [Example 80, 1-(6-{[Dimethyl(oxo)-λ^6-sulfanylidene]amino}pyridin-2-yl)-2-(prop-2-en-1-yl)-6-{[1-(propan-2-yl)-1H-pyrazol-4-yl]amino}-1H,2H,3H-pyrazolo[3,4-d]pyrimidin-3-one]
4 | 2.5 nM | C=CCn1c(=O)c2cnc(Nc3cnn(C)c3)nc2n1-c1cccc(N=S2(=O)CCCC2)n1 [Example 78, 6-[(1-Methyl-1H-pyrazol-4-yl)amino]-1-{6-[(1-oxo-1λ^6-thiolan-1-ylidene)amino]pyridin-2-yl}-2-(prop-2-en-1-yl)-1H,2H,3H-pyrazolo[3,4-d]pyrimidin-3-one]
5 | 1.4 nM | C=CCn1c(=O)c2cnc(Nc3ccc(N4CCN(C)CC4)c(OC)c3)nc2n1-c1cccc(N=S(C)(C)=O)n1 [Example 24, 1-(6-{[Dimethyl(oxo)-λ^6-sulfanylidene]amino}pyridin-2-yl)-6-{[3-methoxy-4-(4-methylpiperazin-1-yl)phenyl]amino}-2-(prop-2-en-1-yl)-1H,2H,3H-pyrazolo[3,4-d]pyrimidin-3-one]
6 | 1.2 nM | C#CCn1c(=O)c2cnc(Nc3cnn(C(C)C)c3)nc2n1-c1cccc(N=S(C)(C)=O)n1 [Example 94, 1-(6-((Dimethyl(oxo)-λ^6-sulfaneylidene)amino)pyridin-2-yl)-6-((1-isopropyl-1H-pyrazol-4-yl)amino)-2-(prop-2-yn-1-yl)-1,2-dihydro-3H-pyrazolo[3,4-d]pyrimidin-3-one]
7 | 0.3 nM | C=CCn1c(=O)c2cnc(Nc3ccc(N4C[C@@H]5C[C@H]4CO5)cc3)nc2n1-c1cccc(N=S(C)(C)=O)n1 [Example 68, 1-(6-{[Dimethyl(oxo)-λ^6-sulfanylidene]amino}pyridin-2-yl)-6-({4-[(1S,4S)-2-oxa-5-azabicyclo[2.2.1]heptan-5-yl]phenyl}amino)-2-(prop-2-en-1-yl)-1H,2H,3H-pyrazolo[3,4-d]pyrimidin-3-one]
8 | 0.8 nM | C=CCn1c(=O)c2cnc(Nc3ccc(N4CCNCC4)cc3)nc2n1-c1cccc(N=S(C)(C)=O)c1 [Example 18, 1-(3-{[Dimethyl(oxo)-λ^6-sulfanylidene]amino}phenyl)-6-{[4-(piperazin-1-yl)phenyl]amino}-2-(prop-2-en-1-yl)-1H,2H,3H-pyrazolo[3,4-d]pyrimidin-3-one]
9 | 1 nM | C=CCn1c(=O)c2cnc(Nc3cc(F)cc(F)c3)nc2n1-c1cccc(N=S(C)(C)=O)n1 [Example 84, 6-[(3,5-Difluorophenyl)amino]-1-(6-{[dimethyl(oxo)-λ^6-sulfanylidene]amino}pyridin-2-yl)-2-(prop-2-en-1-yl)-1H,2H,3H-pyrazolo[3,4-d]pyrimidin-3-one]
10 | 1.5 nM | C=CCn1c(=O)c2cnc(Nc3ccc(N4CCN[C@H](C)C4)cc3)nc2n1-c1cccc(N=S(C)(C)=O)n1 [Example 9, 1-(6-{[Dimethyl(oxo)-λ^6-sulfanylidene]amino}pyridine-2-yl)-6-({4-[(3R)-3-methylpiperazin-1-yl]phenyl}amino)-2-(prop-2-en-1-yl)-1H,2H,3H-pyrazolo[3,4-d]pyrimidin-3-one]
11 | 0.8 nM | C=CCn1c(=O)c2cnc(Nc3ccc(N4CCOCC4)cc3)nc2n1-c1nccc(N=S(C)(C)=O)n1 [Example 52, 1-(4-{[Dimethyl(oxo)-λ^6-sulfanylidene]amino}pyrimidin-2-yl)-6-{[4-(morpholin-4-yl)phenyl]amino}-2-(prop-2-en-1-yl)-1H,2H,3H-pyrazolo[3,4-d]pyrimidin-3-one]
12 | 0.1 nM | C=CCn1c(=O)c2cnc(Nc3ccc(N4CC5CCC(C4)O5)cc3)nc2n1-c1cccc(N=S(C)(C)=O)n1 [Example 36, 1-(6-{[Dimethyl(oxo)-λ^6-sulfanylidene]amino}pyridin-2-yl)-6-{[4-(8-oxa-3-azabicyclo[3.2.1]octan-3-yl)phenyl]amino}-2-(prop-2-en-1-yl)-1H,2H,3H-pyrazolo[3,4-d]pyrimidin-3-one]
13 | 1000 nM | C=CCn1c(=O)c2cnc(Nc3cccnc3)nc2n1-c1cccc(N=S(C)(C)=O)n1 [Example 77, 1-(6-{[Dimethyl(oxo)-λ^6-sulfanylidene]amino}pyridin-2-yl)-2-(prop-2-en-1-yl)-6-[(pyridin-3-yl)amino]-1H,2H,3H-pyrazolo[3,4-d]pyrimidin-3-one]
14 | 4.9 nM | CC(C)n1c(=O)c2cnc(Nc3ccc(F)cc3)nc2n1-c1cccc(N=S(C)(C)=O)n1 [Example 41, 1-(6-{[Dimethyl(oxo)-λ^6-sulfanylidene]amino}pyridin-2-yl)-6-[(4-fluorophenyl)amino]-2-(propan-2-yl)-1H,2H,3H-pyrazolo[3,4-d]pyrimidin-3-one]
15 | 0.4 nM | C=CCn1c(=O)c2cnc(Nc3ccc(C4CCN(C5CCC5)CC4)c(C)c3)nc2n1-c1cccc(N=S(C)(C)=O)n1 [Example 88, 6-{[4-(1-Cyclobutylpiperidin-4-yl)-3-methylphenyl]amino}-1-(6-{[dimethyl(oxo)-λ^6-sulfanylidene]amino}pyridin-2-yl)-2-(prop-2-en-1-yl)-1H,2H,3H-pyrazolo[3,4-d]pyrimidin-3-one]
16 | 0.4 nM | CC(C)n1c(=O)c2cnc(Nc3ccc(N4CCN(CC(F)(F)F)CC4)cc3)nc2n1-c1cccc(N=S(C)(C)=O)n1 [Example 50, 1-(6-{[Dimethyl(oxo)-λ^6-sulfanylidene]amino}pyridin-2-yl)-2-(propan-2-yl)-6-({4-[4-(2,2,2-trifluoroethyl)piperazin-1-yl]phenyl}amino)-1H,2H,3H-pyrazolo[3,4-d]pyrimidin-3-one]
17 | 0.5 nM | C=CCn1c(=O)c2cnc(Nc3ccc(F)c(F)c3)nc2n1-c1cccc(N=S(C)(C)=O)n1 [Example 66, 6-[(3,4-Difluorophenyl)amino]-1-(6-{[dimethyl(oxo)-λ^6-sulfanylidene]amino}pyridin-2-yl)-2-(prop-2-en-1-yl)-1H,2H,3H-pyrazolo[3,4-d]pyrimidin-3-one]
18 | 0.9 nM | C=CCn1c(=O)c2cnc(Nc3ccc(N4CCN(C)CC4)cc3)nc2n1-c1cccc(N=S2(=O)CCCC2)n1 [Example 23, 2-Allyl-6-((4-(4-methylpiperazin-1-yl)phenyl)amino)-1-(6-((1-oxidotetrahydrothiophen-1-ylidene)amino)pyridin-2-yl)-1H-pyrazolo[3,4-d]pyrimidin-3(2H)-one]
19 | 0.3 nM | C=CCn1c(=O)c2cnc(Nc3ccc(N4CCO[C@H](COC)C4)cc3)nc2n1-c1cncc(N=S(C)(C)=O)n1 [Example 74, 1-(6-{[Dimethyl(oxo)-λ^6-sulfanylidene]amino}pyrazin-2-yl)-6-({4-[(2S)-2-(methoxymethyl)morpholin-4-yl]phenyl}amino)-2-(prop-2-en-1-yl)-1H,2H,3H-pyrazolo[3,4-d]pyrimidin-3-one]
